Source: patent US20260223850A1, “SUBSTITUTED PYRROLIDONE COMPOUND, PREPARATION METHOD THEREFOR, COMPOSITION AND APPLICATION THEREOF” (QINGDAO KINGAGROOT CHEMICAL COMPOUND CO., LTD., priority 2023, published 2026)

What was measured:
Experiment in all cases: Seedling stage sealing experiment for water-seeding
Type in all cases: in vivo
Echinochloa crusgalli = settings: 120 g a.i./ha, seedling stage sealing, 15 days, fresh weight control rate
Echinochloa phyllopogon = settings: 120 g a.i./ha, seedling stage sealing, 15 days, fresh weight control rate
How it was run: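 Seeds broadcast on soil in nutrition bowls, covered, kept moist in a water-filled box; compound in acetone diluted with water and spray-tower applied at 120, 60, 30 and 15 g a.i./ha, triplicate. Scored after 15 days in greenhouse on a 0–9 scale of fresh-weight growth control, averaged.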

Leptochloa chinensis = settings: 120 g a.i./ha, 15 days, fresh weight control rate
Excerpt: (1) Seedling Stage Sealing Experiment for Water-Seeding:
The activity level criteria for plant damage (i.e., growth control rate) are as follows: • Level 9: completely dead; • Level 8: growth control rate greater than or equal to 90% and less than 100%; • Level 7: growth control rate greater than or equal to 80% and less than 90%; • Level 6: growth control rate greater than or equal to 70% and less than 80%; • Level 5: growth control rate greater than or equal to 50% and less than 70%; • Level 4: growth control rate greater than or equal to 30% and less than 50%; • Level 3: growth control rate greater than or equal to 20% and less than 30%; • Level 2: growth control rate greater than or equal to 10% and less than 20%; • Level 1: growth control rate less than 10%; • Level 0: no effect.
The above growth control rates are fresh weight control rates.
Echinochloa phyllopogon, Digitaria sanguinalis, Huaidao (rice cultivar), etc. were broadcasted on the surface of nutrition bowls filled with soil and fully covered by soil. The foregoing well-prepared nutrition bowls were then placed in a cultivation box with water filled to a suitable height to keep the soil in the nutrition bowls moist. A test compound of the present invention was individually dissolved with acetone, then diluted into solution of a certain concentration using a certain amount of water, and sprayed using a spray tower. The plants were placed on a greenhouse seedbed and cultured for 15 days, and the experimental results were then collected. The compound was applied at 120, 60, 30 and 15 g a.i./ha in triplicate, and the results were averaged.

SMILES	Echinochloa crusgalli activity level (growth control rate) (Echinochloa crusgalli)	Echinochloa phyllopogon activity level (growth control rate) (Echinochloa phyllopogon)	Leptochloa chinensis activity level (growth control rate) (Leptochloa chinensis)
COc1c(Cl)ccc(C2CN(C)C(=O)C2C(=O)Nc2c(O)nn(C)c2F)c1F (stereo not drawn) [Compound 331]	9	7 (Level 7: growth control rate greater than or equal to 80% and less than 90%)	9
CC(C)n1ncc(NC(=O)[C@H]2C(=O)N(C)C[C@@H]2c2cc(F)cc(C(F)(F)F)c2)c1Cl [291′]	9	9	9
CN1C[C@H](c2cc(F)cc(C(F)(F)F)c2)[C@@H](C(=O)Nc2cnn(C)c2C2CC2)C1=O [293′]	9	9	9
CCc1c(NC(=O)[C@H]2C(=O)N(C)C[C@@H]2c2cccc(C)c2)cnn1C [135′]	9	7 (Level 7: growth control rate greater than or equal to 80% and less than 90%)	9
COCc1c(NC(=O)[C@H]2C(=O)N(C)C[C@@H]2c2cccc(C(F)(F)F)c2)cnn1C [193′]	9	7 (Level 7: growth control rate greater than or equal to 80% and less than 90%)	9
CN1C[C@H](c2ccc(F)c(Cl)c2)[C@@H](C(=O)Nc2c(O)nn(C)c2F)C1=O [311′]	9	8 (Level 8: growth control rate greater than or equal to 90% and less than 100%)	9
CN1CC(c2ccc(F)c(Cl)c2)C(C(=O)Nc2cnn(C)c2Cl)C1=O (stereo not drawn) [Compound 310]	9	8 (Level 8: growth control rate greater than or equal to 90% and less than 100%)	9
C=Cc1c(NC(=O)[C@H]2C(=O)N(C)C[C@@H]2c2cc(C)cc(C)c2)cnn1C [275′]	9	9	9
CN1C[C@H](c2cccc(C(F)(F)F)c2)[C@@H](C(=O)Nc2c(O)nn(C)c2F)C1=O [212′]	9	9	9
CN1C[C@H](c2cccc(C(F)(F)F)c2)[C@@H](C(=O)Nc2cnn(C(F)F)c2Cl)C1=O [158′]	9	8 (Level 8: growth control rate greater than or equal to 90% and less than 100%)	9
CN1CC(c2cccc(OC(F)(F)F)c2)C(C(=O)Nc2cnn(C)c2Cl)C1=O (stereo not drawn) [Compound 33]	9	5 (Level 5: growth control rate greater than or equal to 50% and less than 70%)	9
COc1cc(C2CN(C)C(=O)C2C(=O)Nc2cnn(C)c2Cl)ccc1F (stereo not drawn) [Compound 320]	6 (Level 6: growth control rate greater than or equal to 70% and less than 80%)	6 (Level 6: growth control rate greater than or equal to 70% and less than 80%)	5 (Level 5: growth control rate greater than or equal to 50% and less than 70%)
CN1CC(c2cc(F)cc(C(F)(F)F)c2)C(C(=O)Nc2cnn(C)c2Cl)C1=O (stereo not drawn) [Compound 67]	9	6 (Level 6: growth control rate greater than or equal to 70% and less than 80%)	9
Cc1cccc([C@H]2CN(C)C(=O)[C@@H]2C(=O)Nc2cnn(CC(F)(F)F)c2Cl)c1 [129′]	9	8 (Level 8: growth control rate greater than or equal to 90% and less than 100%)	9
CN1C[C@H](c2cccc(C3CCCC3)c2)[C@@H](C(=O)Nc2cnn(C)c2Cl)C1=O [152′]	9	8 (Level 8: growth control rate greater than or equal to 90% and less than 100%)	9
COc1cccc(C2CN(C)C(=O)C2C(=O)Nc2cnn(C)c2Cl)c1F (stereo not drawn) [Compound 307]	6 (Level 6: growth control rate greater than or equal to 70% and less than 80%)	6 (Level 6: growth control rate greater than or equal to 70% and less than 80%)	5 (Level 5: growth control rate greater than or equal to 50% and less than 70%)
CCn1ncc(NC(=O)C2C(=O)N(C)CC2c2cccc(C(F)(F)F)c2)c1Cl (stereo not drawn) [Compound 95]	6 (Level 6: growth control rate greater than or equal to 70% and less than 80%)	6 (Level 6: growth control rate greater than or equal to 70% and less than 80%)	9
CN1C[C@H](c2cc(F)cc(C(F)(F)F)c2)[C@@H](C(=O)Nc2cnn(C3CC3)c2Cl)C1=O [290′]	9	8 (Level 8: growth control rate greater than or equal to 90% and less than 100%)	9
CN1CC(c2cc(F)c(F)c(F)c2)C(C(=O)Nc2c(O)nn(C)c2F)C1=O (stereo not drawn) [Compound 324]	7 (Level 7: growth control rate greater than or equal to 80% and less than 90%)	7 (Level 7: growth control rate greater than or equal to 80% and less than 90%)	9
CN1C[C@H](c2cccc(C(F)(F)F)c2)[C@@H](C(=O)Nc2cnn(CCCl)c2Cl)C1=O [160′]	6 (Level 6: growth control rate greater than or equal to 70% and less than 80%)	5 (Level 5: growth control rate greater than or equal to 50% and less than 70%)	9
Cc1cccc([C@H]2CN(C)C(=O)[C@@H]2C(=O)Nc2cnn(C3CC3)c2Cl)c1 [128′]	9	8 (Level 8: growth control rate greater than or equal to 90% and less than 100%)	9
CN1CC(c2ccc(Cl)c(Cl)c2)C(C(=O)Nc2cnn(C)c2Cl)C1=O (stereo not drawn) [Compound 309]	6 (Level 6: growth control rate greater than or equal to 70% and less than 80%)	5 (Level 5: growth control rate greater than or equal to 50% and less than 70%)	9
COc1cc([C@H]2CN(C)C(=O)[C@@H]2C(=O)Nc2cnn(C)c2Cl)ccc1Cl [319′]	5 (Level 5: growth control rate greater than or equal to 50% and less than 70%)	5 (Level 5: growth control rate greater than or equal to 50% and less than 70%)	6 (Level 6: growth control rate greater than or equal to 70% and less than 80%)
COc1cccc([C@H]2CN(C)C(=O)[C@@H]2C(=O)Nc2cnn(C)c2C2CC2)c1 [217′]	9	6 (Level 6: growth control rate greater than or equal to 70% and less than 80%)	6 (Level 6: growth control rate greater than or equal to 70% and less than 80%)
COc1cccc([C@H]2CN(C)C(=O)[C@@H]2C(=O)Nc2cnn(C)c2Cl)c1 [28′]	8 (Level 8: growth control rate greater than or equal to 90% and less than 100%)	6 (Level 6: growth control rate greater than or equal to 70% and less than 80%)	9
CN1C[C@H](c2cccc(I)c2)[C@@H](C(=O)Nc2cnn(C)c2Cl)C1=O [125′]	9	9	9
CN1C[C@H](c2ccc(F)c(Cl)c2)[C@@H](C(=O)Nc2cnn(C)c2C2CC2)C1=O [308′]	9	9	9
